Experiments:
Format in all cases: in vivo
[1] = tested on: AMAPA (Amaranthus palmeri); assay: Pot trial Dimethenamid-P+S-Metolachlor+Mesotrione, post-emergence
Excerpt: (§1) A synergistic effect exists whenever the action of an active ingredient combination is greater than the sum of the actions of the individual components. In the field of agriculture, it is often understood that the term “synergy” is as defined by Colby S. R. in an article entitled “Calculation of the synergistic and antagonistic responses of herbicide combinations” published in the journal Weeds, 1967, 15, p. 20-22. The action expected for a given combination of two active components can be calculated according to Colby as follows: […]
(§2) in which E represents the expected effect, e.g. percentage of pest control, for the combination of the active ingredients at defined doses (for example equal to x and y respectively), A is the effect, e.g. percentage of pest control, observed for the first compound or mixture of compounds at a defined dose (equal to x), B is the effect, e.g. percentage of pest control, observed for the second compound or group of compounds at a defined dose (equal to y).
(§3) Here, efficacy or percent inhibition is determined in %. 0% means efficacy that corresponds to the Control, i.e., as if no treatment had been applied. A percent inhibition of 100% means that complete control is observed. When the percent control observed for the combination (E0) is greater than E, there is a synergistic effect. […]

[2] = tested on: ECHCG (Echinochloa crus-galli); assay: Pot trial Flufenacet+Dimethenamid-p+Thiencarbazone, first trial, pre-emergence; conditions: g a.i./ha: Flufenacet 12.2 (12.5 in mix), TCM 3, DMTP 50
Excerpt: as §1, §2, §3

[3] = tested on: SETVE (Setaria verticillate); assay: as above; conditions: g a.i./ha: Flufenacet 12.2 (12.5 in mix), TCM 3, DMTP 50
Excerpt: as §1, §2, §3

[4] = tested on: ECHCG (Echinochloa crus-galli); assay: Pot trial Flufenacet+Dimethenamid-p+Thiencarbazone, second trial, post-emergence; conditions: post-emergence (2-3 leaves), g a.i./ha: Flufenacet 12.2 (12.5 in mix), TCM 3, DMTP 50
Excerpt: as §1, §2, §3

[5] = tested on: AMARE (Amaranthus retroflexus); assay: Pot trial Flufenacet+Dimethenamid-p+Thiencarbazone, third trial, post-emergence; conditions: post-emergence (2-3 leaves), g a.i./ha: Flufenacet 75, TCM 18, DMTP 302
Excerpt: as §1, §2, §3

[6] = tested on: CHEAL (Chenopodium album); assay: as above; conditions: post-emergence (2-3 leaves), g a.i./ha: Flufenacet 75, TCM 18, DMTP 302
Excerpt: as §1, §2, §3

[7] = tested on: AMARE (Amaranthus retroflexus); assay: Pot trial Flufenacet+Dimethenamid-p+Mesotrione, post-emergence; conditions: post-emergence (2-3 leaves), g a.i./ha: Flufenacet 75, MST 60, DMTP 302
Excerpt: as §1, §2, §3

[8] = tested on: ECHCG (Echinochloa crus-galli); assay: as above; conditions: post-emergence (2-3 leaves), g a.i./ha: Flufenacet 75, MST 60, DMTP 302
Excerpt: as §1, §2, §3

[9] = tested on: AMAPA (Amaranthus palmeri); assay: Pot trial Dimethenamid-P+Pethoxamid+Mesotrione, first and second trial, post-emergence
Excerpt: as §1, §2, §3

[10] = tested on: AMAPA (Amaranthus palmeri); assay: Pot trial Dimethenamid-P+Pethoxamid+Mesotrione, third trial, pre-emergence; conditions: g a.i./ha: Petoxamid 360, MST 40, DMTP 200
Excerpt: as §1, §2, §3

SETVI (Setaria viridis) [11] = assay: Pot trial Dimethenamid-P+Thiencarbazone+Pethoxamid, post-emergence
Excerpt: as §1, §2
(§4) Here, efficacy or percent inhibition is determined in %. 0% means efficacy that corresponds to the Control, i.e., as if no treatment had been applied. A percent inhibition of 100% means that complete control is observed. When the percent control observed for the combination (E0) is greater than E, there is a synergistic effect. When the percent control observed for the combination (E0) is equal to E, there is an additive effect and wherein the percent control observed for the combination (E0) is lower than E, there is an antagonistic effect.
(§5) First trial: Tank mixes were prepared by combining the formulation with water in order to achieve the desired concentration of each active ingredient, as outlined in Table 19. For this study, individual pots were utilized for sowing the weeds, with each pot containing one weed species, in this case SOLNI (Solanum nigrum) or SETVI (Setaria viridis). Treatments were then applied to each pot at the post-emergence stage of the weeds, ensuring consistent application timing across all treatments. Subsequently, a comprehensive assessment was conducted seven days after application (7DAA) to evaluate the efficacy of each treatment on SOLNI or SETVI.
as §5, with “Second” for “First”, “21.” for “19.”, “Subsequently, a comprehensive assessment was conducted seven days after application (7DAA) to evaluate the efficacy of each treatment on SOLNI or SETVI.” left out

SOLNI (Solanum nigrum) [12] = assay: as above
Excerpt: as §1, §2, §4, §5
as §5, with “Second” for “First”, “21.” for “19.”, “Subsequently, a comprehensive assessment was conducted seven days after application (7DAA) to evaluate the efficacy of each treatment on SOLNI or SETVI.” left out

SOLNI (Solanum nigrum) [13] = assay: Pot trial Dimethenamid-P+Tembotrione+Pethoxamid (Example 6), post-emergence
Excerpt: as §1, §2, §3

SETVI (Setaria viridis) [14] = assay: Pot trial Dimethenamid-P+Tembotrione+Pethoxamid (Example 7), post-emergence
Excerpt: as §1, §2, §3

[15] = first trial, g a.i./ha: PTX 360, TCM/DMTP 159 (one cell)
[16] = second trial, g a.i./ha: PTX 720, TCM/DMTP 318 (one cell)
[17] = second trial, g a.i./ha: PTX 720, TMB 63, DMTP 604.8

## CCc1cccc(C)c1N(C(=O)CCl)[C@@H](C)COC [S-metolachlor]
[1]; first trial, g a.i./ha: S-MOc 144, MST 20, DMTP 100
  efficacy 18DAA AMAPA %: 0.00%
[1]; second trial, g a.i./ha: S-MOc 288, MST 40, DMTP 200
  efficacy 18DAA AMAPA %: 0.00%

## CC(C)N(C(=O)COc1nnc(C(F)(F)F)s1)c1ccc(F)cc1 [Flufenacet]
[2]
  efficacy 8DAA ECHCG %: 0%
[3]
  efficacy 8DAA SETVE %: 0%
[4]
  efficacy 8DAA ECHCG %: 0%
[5]
  efficacy 8DAA AMARE %: 0%
[6]
  efficacy 8DAA CHEAL %: 0%
[7]
  efficacy 8DAA AMARE %: 0%
[8]
  efficacy 8DAA ECHCG %: 0%

## CCOCCN(C(=O)CCl)C(=C(C)C)c1ccccc1 [Pethoxamid]
[9]; first trial, g a.i./ha: Petoxamid 720, MST 60, DMTP 300
  efficacy 21DAA AMAPA %: 6.25%
[9]; second trial, g a.i./ha: Petoxamid 120, MST 20, DMTP 100
  efficacy 21DAA AMAPA %: 0%
[10]
  efficacy 21DAA AMAPA %: 52.50%
SETVI (Setaria viridis) [11]; [15]
  efficacy 7DAA SETVI %: 2.50%
SETVI (Setaria viridis) [11]; [16]
  efficacy 7DAA SETVI %: 0.00%
SOLNI (Solanum nigrum) [12]; [15]
  efficacy 7DAA SOLNI %: 0.00%
SOLNI (Solanum nigrum) [12]; [16]
  efficacy 7DAA SOLNI %: 1.70%
SOLNI (Solanum nigrum) [13]; first trial, g a.i./ha: PTX 120, TMB 10.5, DMTP 100
  efficacy 7DAA SOLNI %: 0.00%
SOLNI (Solanum nigrum) [13]; [17]
  efficacy 7DAA SOLNI %: 1.70%
SETVI (Setaria viridis) [14]; first trial, g a.i./ha: PTX 360, TMB 10.5, DMTP 100.8
  efficacy 7DAA SETVI %: 2.50%
SETVI (Setaria viridis) [14]; [17]
  efficacy 7DAA SETVI %: 0.00%

Reference: patent publication US20250338842A1, “NOVEL MIXTURES FOR CROP PROTECTION” (Adama Agan LTD., priority 2023, published 2025)
